We go through 12 compounds from patent US20250296971A1, “GASTRIC INHIBITORY PEPTIDE RECEPTOR LIGANDS” (priority 2021, published 2025).

*1 amine or outer side, *2 acyl side, *3 side chain or, on linkers, in order; H or OH if unused. Where a SMILES comes first, the peptide text is derived from it. Bridges are numbered along the chain shown (N, C = ends). [ ]: non-standard residue; d: D form. The star is where a group is joined. X3 = O=C(O)CN1CCN(CC(=O)O)CCN(CC(=O)NCCCOCCOCCOCCCN*)CCN(CC(=O)O)CC1; NH(1-deoxy-D-glucityl) = OC[C@@H](O)[C@@H](O)[C@H](O)[C@@H](O)CN*; DO3AM = NC(=O)CN1CCN(CC(N)=O)CCN(CC(=O)*)CCN(CC(N)=O)CC1; DOTA = O=C(O)CN1CCN(CC(=O)O)CCN(CC(=O)*)CCN(CC(=O)O)CC1; Trp(5-Cl) = N[C@@H](Cc1c[nH]c2ccc(Cl)cc12)C(=O)O; Pyridine(2,6-diCH2) = c1cc(C[*:1])nc(C[*:2])c1; Trp(5-F) = N[C@@H](Cc1c[nH]c2ccc(F)cc12)C(=O)O; Phe(2-Cl) = N[C@@H](Cc1ccccc1Cl)C(=O)O; Pro(4R-NH2) = N[C@H]1CN[C@H](C(=O)O)C1; 1Nal = N[C@@H](Cc1cccc2ccccc12)C(=O)O; Glutaryl = O=C(CCCC(=O)[*:2])[*:1]; Hyp = O=C(O)[C@@H]1C[C@@H](O)CN1; X1 = O=C(CN1CCC(N[*:1])CC1)[*:2]; Cha = N[C@@H](CC1CCCCC1)C(=O)O; Suc = O=C(CCC(=O)[*:2])[*:1]; αMeK = C[C@](N)(CCCCN)C(=O)O; Api = NC1(C(=O)O)CCNCC1; Thp = NC1(C(=O)O)CCOCC1 Bounds are passed on as bounds.

The target of the assay is T1, GIPR (CHO-K1-hGIPR cells) (Homo sapiens, UniProt P48546).
T1 construct: host or cells: CHO-K1
T1 sequence (P48546 22-466): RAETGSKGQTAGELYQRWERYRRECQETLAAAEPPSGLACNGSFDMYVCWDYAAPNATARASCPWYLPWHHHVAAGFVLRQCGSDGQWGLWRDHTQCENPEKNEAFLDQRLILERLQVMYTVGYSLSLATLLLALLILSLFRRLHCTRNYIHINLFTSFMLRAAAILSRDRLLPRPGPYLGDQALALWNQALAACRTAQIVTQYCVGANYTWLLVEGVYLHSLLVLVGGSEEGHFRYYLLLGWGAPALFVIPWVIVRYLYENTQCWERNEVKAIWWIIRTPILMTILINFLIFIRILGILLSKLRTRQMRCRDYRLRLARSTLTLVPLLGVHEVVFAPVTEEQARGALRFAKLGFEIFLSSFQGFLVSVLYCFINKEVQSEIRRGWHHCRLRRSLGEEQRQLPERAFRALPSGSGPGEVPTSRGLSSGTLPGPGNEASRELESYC
The experiment in a line: FACS binding assay. Particulars: competition with 20 nM GIP-057, 4° C. for 1 hour, read-out: pIC50 Category (converted). In outline:
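Steps: detach CHO-K1-hGIPR cells (Accutase); wash in PBS/1% FCS; adjust to 500.000 cells per mL; wash ice-cold; incubate APC-streptavidin 1 μg/mL, 30 min on ice; wash twice; acquire on flow cytometer; fit MFI-concentration data with a four-parameter logistic model.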
A general note: A flow cytometer gives signals particle by particle.
As for `CC[C@H](C)[C@@H]1NC(=O)[C@H](CC(C)C)NC(=O)C2(CCN(C(=O)CN3CCN(CC(N)=O)CCN(CC(N)=O)CCN(CC(N)=O)CC3)CC2)NC(=O)[C@@H](NC(=O)[C@@H](CC(C)C)NC(=O)[C@H](CCC(=O)O)NC(=O)[C@@H]2C[C@@H](N)CN2C(=O)[C@H](Cc2c[nH]c3ccc(Cl)cc23)NC(=O)[C@H](Cc2c[nH]c3ccccc23)NC(=O)[C@H](CC(=O)O)NC(=O)CCCC(=O)NC[C@H](O)[C@@H](O)[C@H](O)[C@H](O)CO)CSCc2cccc(n2)CSC[C@@H](C(=O)NC2CCN(CC(=O)N[C@H](CCC(=O)NC[C@H](O)[C@@H](O)[C@H](O)[C@H](O)CO)C(N)=O)CC2)NC1=O` [GIP-370, AGLU-Glutar-Asp-Trp-5Clw-Tap-Glu-leu-[Cys(2Lut)-Apc(DOTAM)-Leu-Ile-Cys]-APAc-glu(AGLU)-NH2] ({NH(1-deoxy-D-glucityl)-Glutaryl}-DW[Trp(5-Cl)][Pro(4R-NH2)]E[dL]C[Api](DO3AM)LIC[X1][dE](NH(1-deoxy-D-glucityl))-NH2; linker 7-11 via Pyridine(2,6-diCH2)), the IC50 is below 10 nM.

For the compound `CC[C@H](C)[C@@H]1NC(=O)[C@H](CC(C)C)NC(=O)[C@](C)(CCCCNC(=O)CN2CCN(CC(=O)O)CCN(CC(=O)O)CCN(CC(=O)O)CC2)NC(=O)[C@@H](NC(=O)[C@@H](CC(C)C)NC(=O)[C@H](CCC(=O)O)NC(=O)[C@@H]2C[C@@H](N)CN2C(=O)[C@H](Cc2c[nH]c3ccc(Cl)cc23)NC(=O)[C@H](Cc2c[nH]c3ccccc23)NC(=O)[C@H](CC(=O)O)NC(=O)CCCC(=O)NC[C@H](O)[C@@H](O)[C@H](O)[C@H](O)CO)CSCc2cccc(n2)CSC[C@@H](C(=O)NC2CCN(CC(=O)N[C@H](CCC(=O)NC[C@H](O)[C@@H](O)[C@H](O)[C@H](O)CO)C(N)=O)CC2)NC1=O` [GIP-371, AGLU-Glutar-Asp-Trp-5Clw-Tap-Glu-leu-[Cys(2Lut)-Amk(DOTA)-Leu-Ile-Cys]-APAc-glu(AGLU)-NH] ({NH(1-deoxy-D-glucityl)-Glutaryl}-DW[Trp(5-Cl)][Pro(4R-NH2)]E[dL]C[αMeK](DOTA)LIC[X1][dE](NH(1-deoxy-D-glucityl))-NH2; linker 7-11 via Pyridine(2,6-diCH2)), the IC50 is below 10 nM.

For `CC[C@H](C)[C@@H]1NC(=O)[C@H](CC(C)C)NC(=O)C2(CCOCC2)NC(=O)[C@@H](NC(=O)[C@@H](CC(C)C)NC(=O)[C@H](CCC(=O)O)NC(=O)[C@@H]2C[C@@H](O)CN2C(=O)[C@H](Cc2c[nH]c3ccc(Cl)cc23)NC(=O)[C@H](Cc2c[nH]c3ccc(Cl)cc23)NC(=O)[C@H](CC(=O)O)NC(C)=O)CSCc2cccc(n2)CSC[C@@H](C(N)=O)NC1=O` [GIP-379, Ac-Asp-5Clw-5Clw-Hyp-Glu-leu-[Cys(2Lut)-Thp-Leu-Ile-Cys]-NH2] (Ac-D[Trp(5-Cl)][Trp(5-Cl)][Hyp]E[dL]C[Thp]LIC-NH2; linker 7-11 via Pyridine(2,6-diCH2)), the IC50 was below 10 nM.

In the case of `CC[C@H](C)[C@@H]1NC(=O)[C@H](CC(C)C)NC(=O)C2(CCOCC2)NC(=O)[C@@H](NC(=O)[C@@H](CC(C)C)NC(=O)[C@H](CCC(=O)O)NC(=O)[C@@H]2C[C@@H](O)CN2C(=O)[C@H](Cc2c[nH]c3ccc(Cl)cc23)NC(=O)[C@H](Cc2cccc3ccccc23)NC(=O)[C@H](CC(=O)O)NC(C)=O)CSCc2cccc(n2)CSC[C@@H](C(N)=O)NC1=O` [GIP-380, Ac-Asp-1Ni-5Clw-Hyp-Glu-leu-[Cys(2Lut)-Thp-Leu-Ile-Cys]-NH2] (Ac-D[1Nal][Trp(5-Cl)][Hyp]E[dL]C[Thp]LIC-NH2; linker 7-11 via Pyridine(2,6-diCH2)), the IC50 is below 10 nM.

Regarding `CC[C@H](C)[C@@H]1NC(=O)[C@H](CC(C)C)NC(=O)C2(CCOCC2)NC(=O)[C@@H](NC(=O)[C@@H](CC(C)C)NC(=O)[C@H](CCC(=O)O)NC(=O)[C@@H]2C[C@@H](O)CN2C(=O)[C@H](Cc2c[nH]c3ccc(Cl)cc23)NC(=O)[C@H](Cc2c[nH]c3ccccc23)NC(=O)[C@@H](CC(=O)O)NC(C)=O)CSCc2cccc(n2)CSC[C@@H](C(N)=O)NC1=O` [GIP-381, Ac-asp-Trp-5Clw-Hyp-Glu-leu-[Cys(2Lut)-Thp-Leu-Ile-Cys]-NH2] (Ac-[dD]W[Trp(5-Cl)][Hyp]E[dL]C[Thp]LIC-NH2; linker 7-11 via Pyridine(2,6-diCH2)), the IC50 is below 10 nM.

`CC[C@H](C)[C@@H]1NC(=O)[C@H](CC(C)C)NC(=O)C2(CCOCC2)NC(=O)[C@@H](NC(=O)[C@@H](CC(C)C)NC(=O)[C@H](CCC(=O)O)NC(=O)[C@@H]2C[C@@H](O)CN2C(=O)[C@H](Cc2c[nH]c3ccc(Cl)cc23)NC(=O)[C@H](Cc2c[nH]c3ccc(F)cc23)NC(=O)[C@H](CC(=O)O)NC(C)=O)CSCc2cccc(n2)CSC[C@@H](C(N)=O)NC1=O` [GIP-382, Ac-Asp-5Fw-5Clw-Hyp-Glu-leu-[Cys(2Lut)-Thp-Leu-Ile-Cys]-NH2] (Ac-D[Trp(5-F)][Trp(5-Cl)][Hyp]E[dL]C[Thp]LIC-NH2; linker 7-11 via Pyridine(2,6-diCH2)): the IC50 was below 10 nM.

With `CC[C@H](C)[C@@H]1NC(=O)[C@H](CC2CCCCC2)NC(=O)C2(CCOCC2)NC(=O)[C@@H](NC(=O)[C@@H](CC(C)C)NC(=O)[C@H](CCC(=O)O)NC(=O)[C@@H]2C[C@@H](O)CN2C(=O)[C@H](Cc2c[nH]c3ccc(Cl)cc23)NC(=O)[C@H](Cc2c[nH]c3ccccc23)NC(=O)[C@H](CC(=O)O)NC(C)=O)CSCc2cccc(n2)CSC[C@@H](C(N)=O)NC1=O` [GIP-383, Ac-Asp-Trp-5Clw-Hyp-Glu-leu-[Cys(2Lut)-Thp-Cha-Ile-Cys]-NH2] (Ac-DW[Trp(5-Cl)][Hyp]E[dL]C[Thp][Cha]IC-NH2; linker 7-11 via Pyridine(2,6-diCH2)), the IC50 was below 10 nM.

Take `CC[C@H](C)[C@@H]1NC(=O)[C@H](CC(C)C)NC(=O)C2(CCOCC2)NC(=O)[C@@H](NC(=O)[C@@H](CC(C)C)NC(=O)[C@H](CO)NC(=O)[C@@H]2C[C@@H](O)CN2C(=O)[C@H](Cc2c[nH]c3ccc(Cl)cc23)NC(=O)[C@H](Cc2c[nH]c3ccccc23)NC(=O)[C@H](CC(=O)O)NC(C)=O)CSCc2cccc(n2)CSC[C@@H](C(N)=O)NC1=O` [GIP-384, Ac-Asp-Trp-5Clw-Hyp-Ser-leu-[Cys(2Lut)-Thp-Leu-Ile-Cys]-NH2] (Ac-DW[Trp(5-Cl)][Hyp]S[dL]C[Thp]LIC-NH2; linker 7-11 via Pyridine(2,6-diCH2)): the IC50 is below 10 nM.

On to `CC[C@H](C)[C@@H]1NC(=O)[C@H](CC(C)C)NC(=O)C2(CCOCC2)NC(=O)[C@@H](NC(=O)[C@@H](CC(C)C)NC(=O)[C@@H](NC(=O)[C@@H]2C[C@@H](O)CN2C(=O)[C@H](Cc2c[nH]c3ccc(Cl)cc23)NC(=O)[C@H](Cc2c[nH]c3ccccc23)NC(=O)[C@H](CC(=O)O)NC(C)=O)C(C)C)CSCc2cccc(n2)CSC[C@@H](C(N)=O)NC1=O` [GIP-385, Ac-Asp-Trp-5Clw-Hyp-Val-leu-[Cys(2Lut)-Thp-Leu-Ile-Cys]-NH2] (Ac-DW[Trp(5-Cl)][Hyp]V[dL]C[Thp]LIC-NH2; linker 7-11 via Pyridine(2,6-diCH2)), for which the IC50 is below 10 nM.

As to `CC[C@H](C)[C@@H]1NC(=O)[C@H](CC(C)C)NC(=O)C2(CCOCC2)NC(=O)[C@@H](NC(=O)[C@@H](CC(C)C)NC(=O)[C@H](C)NC(=O)[C@@H]2C[C@@H](O)CN2C(=O)[C@H](Cc2c[nH]c3ccc(Cl)cc23)NC(=O)[C@H](Cc2c[nH]c3ccccc23)NC(=O)[C@H](CC(=O)O)NC(C)=O)CSCc2cccc(n2)CSC[C@@H](C(N)=O)NC1=O` [GIP-386, Ac-Asp-Trp-5Clw-Hyp-Ala-leu-[Cys(2Lut)-Thp-Leu-Ile-Cys]-NH2] (Ac-DW[Trp(5-Cl)][Hyp]A[dL]C[Thp]LIC-NH2; linker 7-11 via Pyridine(2,6-diCH2)), the IC50 was below 10 nM.

Turning to `CC[C@H](C)[C@@H]1NC(=O)[C@H](CC(C)C)NC(=O)C2(CCOCC2)NC(=O)[C@@H](NC(=O)[C@@H](CC(C)C)NC(=O)[C@H](CCC(=O)O)NC(=O)[C@@H]2C[C@@H](O)CN2C(=O)[C@H](Cc2c[nH]c3ccc(Cl)cc23)NC(=O)[C@H](Cc2ccccc2Cl)NC(=O)[C@H](CC(=O)O)NC(=O)CCC(=O)NCCCOCCOCCOCCCNC(=O)CN2CCN(CC(=O)O)CCN(CC(=O)O)CCN(CC(=O)O)CC2)CSCc2cccc(n2)CSC[C@@H](C(N)=O)NC1=O` [GIP-387, DOTA-Ttds-Asp-Ocf-5Clw-Hyp-Glu-leu-[Cys(2Lut)-Thp-Leu-Ile-Cys]-NH2] ({X3-Suc}-D[Phe(2-Cl)][Trp(5-Cl)][Hyp]E[dL]C[Thp]LIC-NH2; linker 7-11 via Pyridine(2,6-diCH2)), the IC50 is 10 to 79.4 nM.

Take `CC(C)C[C@@H]1NC(=O)C2(CCOCC2)NC(=O)[C@@H](NC(=O)[C@@H](CC(C)C)NC(=O)[C@H](CCC(=O)O)NC(=O)[C@@H]2C[C@@H](O)CN2C(=O)[C@H](Cc2c[nH]c3ccc(Cl)cc23)NC(=O)[C@H](Cc2c[nH]c3ccccc23)NC(=O)[C@H](CC(=O)O)NC(=O)CCC(=O)NCCCOCCOCCOCCCNC(=O)CN2CCN(CC(=O)O)CCN(CC(=O)O)CCN(CC(=O)O)CC2)CSCc2cccc(n2)CSC[C@@H](C(N)=O)NC(=O)[C@H](Cc2ccccc2)NC1=O` [GIP-388, DOTA-Ttds-Asp-Trp-5Clw-Hyp-Glu-leu-[Cys(2Lut)-Thp-Leu-Phe-Cys]-NH2] ({X3-Suc}-DW[Trp(5-Cl)][Hyp]E[dL]C[Thp]LFC-NH2; linker 7-11 via Pyridine(2,6-diCH2)): the IC50 is 10 to 79.4 nM.
